# According to ChEMBL document CHEMBL3045723, “Synthesis of novel 3-(5-sulfanyl-1,3,4-oxadiazol-2-yl)-2H-chromen-2-one condensed s-triazinyl piperazines and piperidines as antimicrobial agents” (2012):
# How the values were obtained:
# Candida albicans [1] = assay: Antifungal activity against Candida albicans MTCC 183 after 48 hr; format: functional; details: MTCC 183, 48 h
# Aspergillus niger [2] = assay: Antifungal activity against Aspergillus niger MTCC 282 after 48 hr; format: functional; details: MTCC 282, 48 h
# Candida albicans [3] = assay: Antifungal activity against Candida albicans MTCC 183 at 100 ug/disk after 24 hr by agar disk diffusion test; format: functional; details: MTCC 183, 24 h, read-out: IZ
# Aspergillus niger [4] = assay: Antifungal activity against Aspergillus niger MTCC 282 at 100 ug/disk after 24 hr by agar disk diffusion test; format: functional; details: MTCC 282, 24 h, read-out: IZ
# Candida albicans [5] = assay: Antifungal activity against Candida albicans MTCC 183 after 24 hr by agar disk diffusion test; format: functional
# Aspergillus niger [6] = assay: Antifungal activity against Aspergillus niger MTCC 282 after 24 hr by agar disk diffusion test; format: functional
# Shigella flexneri [7] = assay: Antibacterial activity against Shigella flexneri after 24 hr; format: functional
# Proteus vulgaris [8] = assay: Antibacterial activity against Proteus vulgaris MTCC 1771 after 24 hr; format: functional; details: MTCC 1771, 24 h
# Salmonella typhi [9] = assay: Antibacterial activity against Salmonella enterica subsp. enterica serovar Typhi MTCC 733 after 24 hr; format: functional; details: MTCC 733, 24 h
# Shigella flexneri [10] = assay: Antibacterial activity against Shigella flexneri after 24 hr by agar disk diffusion test; format: functional
# Proteus vulgaris [11] = assay: Antibacterial activity against Proteus vulgaris MTCC 1771 after 24 hr by agar disk diffusion test; format: functional
# Salmonella typhi [12] = assay: Antibacterial activity against Salmonella enterica subsp. enterica serovar Typhi MTCC 733 after 24 hr by agar disk diffusion test; format: functional
# Klebsiella pneumoniae [13] = assay: Antibacterial activity against Klebsiella pneumoniae MTCC 109 after 24 hr by agar disk diffusion test; format: functional
# Pseudomonas aeruginosa [14] = assay: Antibacterial activity against Pseudomonas aeruginosa MTCC 741 after 24 hr by agar disk diffusion test; format: functional
# Escherichia coli [15] = assay: Antibacterial activity against Escherichia coli MTCC 739 after 24 hr by agar disk diffusion test; format: functional
# Bacillus cereus [16] = assay: Antibacterial activity against Bacillus cereus MTCC 619 after 24 hr by agar disk diffusion test; format: functional
# Staphylococcus aureus [17] = assay: Antibacterial activity against Staphylococcus aureus MTCC 96 after 24 hr by agar disk diffusion test; format: functional
# Klebsiella pneumoniae [18] = assay: Antibacterial activity against Klebsiella pneumoniae MTCC 109 after 24 hr; format: functional; details: MTCC 109, 24 h
# Pseudomonas aeruginosa [19] = assay: Antibacterial activity against Pseudomonas aeruginosa MTCC 741; format: functional
# Escherichia coli [20] = assay: Antibacterial activity against Escherichia coli MTCC 739 after 24 hr; format: functional; details: MTCC 739, 24 h
# Bacillus cereus [21] = assay: Antibacterial activity against Bacillus cereus MTCC 619 after 24 hr; format: functional; details: MTCC 619, 24 h
# Staphylococcus aureus [22] = assay: Antibacterial activity against Staphylococcus aureus MTCC 96 after 24 hr; format: functional; details: MTCC 96, 24 h
# Bacillus cereus [23] = assay: Antibacterial activity against Bacillus cereus MTCC 619 at 100 ug/disk after 24 hr by agar disk diffusion test; format: functional; details: MTCC 619, 24 h, read-out: IZ
# Staphylococcus aureus [24] = assay: Antibacterial activity against Staphylococcus aureus MTCC 96 at 100 ug/disc after 24 hr by agar disk diffusion test; details: MTCC 96, 24 h, read-out: IZ
# Shigella flexneri [25] = assay: Antibacterial activity against Shigella flexneri at 100 ug/disc after 24 hr by agar disk diffusion test; format: functional; details: read-out: IZ
# Proteus vulgaris [26] = assay: Antibacterial activity against Proteus vulgaris MTCC 1771 at 100 ug/disk after 24 hr by agar disk diffusion test; format: functional; details: MTCC 1771, 24 h, read-out: IZ
# Salmonella typhi [27] = assay: Antibacterial activity against Salmonella enterica subsp. enterica serovar Typhi MTCC 733 at 100 ug/disk after 24 hr by agar disk diffusion test; format: functional; details: MTCC 733, 24 h, read-out: IZ
# Pseudomonas aeruginosa [28] = assay: microbe, parasite or virus in culture; details: MTCC 741, 24 h, read-out: IZ
# Description: Antibacterial activity against Pseudomonas aeruginosa MTCC 741 at 100 ug/disk after 24 hr by agar disk diffusion test
# Escherichia coli [29] = assay: microbe, parasite or virus in culture; details: MTCC 739, 24 h, read-out: IZ
# Description: Antibacterial activity against Escherichia coli MTCC 739 at 100 ug/disk after 24 hr by agar disk diffusion test
# Klebsiella pneumoniae [30] = assay: microbe, parasite or virus in culture; details: MTCC 109, 24 h, read-out: IZ
# Description: Antibacterial activity against Klebsiella pneumoniae MTCC 109 at 100 ug/disk after 24 hr by agar disk diffusion test
Compound,MIC (Candida albicans [1]),MIC (Aspergillus niger [2]),inhibition zone (IZ) (Candida albicans [5]),inhibition zone (IZ) (Aspergillus niger [6]),MIC (Shigella flexneri [7]),MIC (Proteus vulgaris [8]),MIC (Salmonella typhi [9]),inhibition zone (IZ) (Shigella flexneri [10]),inhibition zone (IZ) (Proteus vulgaris [11]),inhibition zone (IZ) (Salmonella typhi [12]),inhibition zone (IZ) (Klebsiella pneumoniae [13]),inhibition zone (IZ) (Pseudomonas aeruginosa [14]),inhibition zone (IZ) (Escherichia coli [15]),inhibition zone (IZ) (Bacillus cereus [16]),inhibition zone (IZ) (Staphylococcus aureus [17]),MIC (Klebsiella pneumoniae [18]),MIC (Pseudomonas aeruginosa [19]),MIC (Escherichia coli [20]),MIC (Bacillus cereus [21]),MIC (Staphylococcus aureus [22]),other results
CC(=O)N1CCN(c2ccc(OCC3COC(Cn4ccnc4)(c4ccc(Cl)cc4Cl)O3)cc2)CC1 (centres undefined) [KETOCONAZOLE],1.56 µg/mL,1.56 µg/mL,,,,,,,,,,,,,,,,,,,zone of inhibition at 100 µg/disc (Candida albicans [3]): 33 mm; zone of inhibition at 100 µg/disc (Aspergillus niger [4]): 30 mm
O=c1oc2ccccc2cc1-c1nnc(Sc2nc(Oc3cccc4cccnc34)nc(N3CCN(c4ccccc4F)CC3)n2)o1,100 µg/mL,100 µg/mL,19 mm,21 mm,100 µg/mL,25 µg/mL,50 µg/mL,19 mm,22 mm,20 mm,20 mm,19 mm,23 mm,20 mm,19 mm,50 µg/mL,100 µg/mL,25 µg/mL,50 µg/mL,100 µg/mL,
O=c1oc2ccccc2cc1-c1nnc(Sc2nc(Oc3cccc4cccnc34)nc(N3CCN(c4ccccc4)CC3)n2)o1,100 µg/mL,100 µg/mL,<10 mm,<10 mm,100 µg/mL,100 µg/mL,100 µg/mL,<10 mm,15 mm,<10 mm,11 mm,13 mm,<10 mm,12 mm,<10 mm,100 µg/mL,100 µg/mL,100 µg/mL,100 µg/mL,100 µg/mL,
CC(=O)N1CCN(c2nc(Oc3cccc4cccnc34)nc(Sc3nnc(-c4cc5ccccc5oc4=O)o3)n2)CC1,100 µg/mL,100 µg/mL,13 mm,16 mm,25 µg/mL,100 µg/mL,12.5 µg/mL,23 mm,18 mm,22 mm,13 mm,23 mm,15 mm,22 mm,20 mm,100 µg/mL,12.5 µg/mL,100 µg/mL,25 µg/mL,50 µg/mL,
O=c1oc2ccccc2cc1-c1nnc(Sc2nc(Oc3cccc4cccnc34)nc(N3CCN(c4ccc(F)cc4)CC3)n2)o1,50 µg/mL,100 µg/mL,22 mm,21 mm,100 µg/mL,50 µg/mL,100 µg/mL,17 mm,21 mm,19 mm,16 mm,21 mm,23 mm,21 mm,22 mm,100 µg/mL,50 µg/mL,25 µg/mL,50 µg/mL,25 µg/mL,
O=C(O)c1cn(C2CC2)c2cc(N3CCNCC3)c(F)cc2c1=O [CIPROFLOXACIN],,,,,1.56 µg/mL,0.39 µg/mL,0.39 µg/mL,,,,,,,,,0.78 µg/mL,0.78 µg/mL,,0.39 µg/mL,1.56 µg/mL,zone of inhibition at 100 µg/disc (Bacillus cereus [23]): 31 mm; zone of inhibition at 100 µg/disc (Staphylococcus aureus [24]): 30 mm; zone of inhibition at 100 µg/disc (Shigella flexneri [25]): 32 mm; zone of inhibition at 100 µg/disc (Proteus vulgaris [26]): 31 mm; zone of inhibition at 100 µg/disc (Salmonella typhi [27]): 30 mm; zone of inhibition at 100 µg/disc (Pseudomonas aeruginosa [28]): 33 mm; zone of inhibition at 100 µg/disc (Escherichia coli [29]): 32 mm; zone of inhibition at 100 µg/disc (Klebsiella pneumoniae [30]): 33 mm
O=c1oc2ccccc2cc1-c1nnc(Sc2nc(Oc3cccc4cccnc34)nc(N3CCOCC3)n2)o1,100 µg/mL,100 µg/mL,<10 mm,12 mm,100 µg/mL,100 µg/mL,100 µg/mL,11 mm,<10 mm,16 mm,22 mm,16 mm,<10 mm,15 mm,14 mm,25 µg/mL,100 µg/mL,100 µg/mL,100 µg/mL,100 µg/mL,
COc1ccc(CN2CCN(c3nc(Oc4cccc5cccnc45)nc(Sc4nnc(-c5cc6ccccc6oc5=O)o4)n3)CC2)c(OC)c1OC,50 µg/mL,25 µg/mL,22 mm,24 mm,25 µg/mL,100 µg/mL,12.5 µg/mL,23 mm,20 mm,24 mm,18 mm,22 mm,19 mm,23 mm,23 mm,100 µg/mL,12.5 µg/mL,100 µg/mL,12.5 µg/mL,12.5 µg/mL,
O=c1oc2ccccc2cc1-c1nnc(Sc2nc(Oc3cccc4cccnc34)nc(N3CCN(c4ncccn4)CC3)n2)o1,100 µg/mL,100 µg/mL,17 mm,16 mm,50 µg/mL,100 µg/mL,100 µg/mL,22 mm,16 mm,18 mm,22 mm,18 mm,19 mm,22 mm,21 mm,25 µg/mL,100 µg/mL,100 µg/mL,25 µg/mL,50 µg/mL,
O=c1oc2ccccc2cc1-c1nnc(Sc2nc(Oc3cccc4cccnc34)nc(N3CCN(c4cccc(C(F)(F)F)c4)CC3)n2)o1,50 µg/mL,25 µg/mL,21 mm,24 mm,100 µg/mL,25 µg/mL,50 µg/mL,21 mm,23 mm,21 mm,21 mm,21 mm,22 mm,24 mm,24 mm,25 µg/mL,25 µg/mL,50 µg/mL,12.5 µg/mL,12.5 µg/mL,
O=c1oc2ccccc2cc1-c1nnc(Sc2nc(Oc3cccc4cccnc34)nc(N3CCCCC3)n2)o1,100 µg/mL,100 µg/mL,<10 mm,<10 mm,100 µg/mL,100 µg/mL,100 µg/mL,<10 mm,<10 mm,14 mm,20 mm,15 mm,<10 mm,<10 mm,11 mm,50 µg/mL,100 µg/mL,100 µg/mL,100 µg/mL,100 µg/mL,
